Converted amounts (≈) assume the structure as drawn.
Columns and labels:
AuroraB = AuroraB (Homo sapiens, UniProt Q96GD4); assay: Preliminary safety test on human AuroraB kinase; assay type: biochemical
Method: We explored the binding mode by also testing compounds on the gatekeeper mutant enzyme TQ PfPKG. […] A preliminary safety test was performed on human AuroraB and LCK kinases which often underpin toxicity issues. […] Further assays for compound characterization included determination of solubility and cytotoxicity (HepG2 inhibition).

HuPKGIα = target: T1, HuPKGIα (Homo sapiens, UniProt Q13976); assay: Kinase Glo enzymatic assay, human PKG; assay type: biochemical; details: human PKGIα; read-out: Hu PKGIα
T1 construct: His6; host or cells: Spodoptera frugiperda 21 cells (baculovirus)
T1 sequence (Q13976 1-671): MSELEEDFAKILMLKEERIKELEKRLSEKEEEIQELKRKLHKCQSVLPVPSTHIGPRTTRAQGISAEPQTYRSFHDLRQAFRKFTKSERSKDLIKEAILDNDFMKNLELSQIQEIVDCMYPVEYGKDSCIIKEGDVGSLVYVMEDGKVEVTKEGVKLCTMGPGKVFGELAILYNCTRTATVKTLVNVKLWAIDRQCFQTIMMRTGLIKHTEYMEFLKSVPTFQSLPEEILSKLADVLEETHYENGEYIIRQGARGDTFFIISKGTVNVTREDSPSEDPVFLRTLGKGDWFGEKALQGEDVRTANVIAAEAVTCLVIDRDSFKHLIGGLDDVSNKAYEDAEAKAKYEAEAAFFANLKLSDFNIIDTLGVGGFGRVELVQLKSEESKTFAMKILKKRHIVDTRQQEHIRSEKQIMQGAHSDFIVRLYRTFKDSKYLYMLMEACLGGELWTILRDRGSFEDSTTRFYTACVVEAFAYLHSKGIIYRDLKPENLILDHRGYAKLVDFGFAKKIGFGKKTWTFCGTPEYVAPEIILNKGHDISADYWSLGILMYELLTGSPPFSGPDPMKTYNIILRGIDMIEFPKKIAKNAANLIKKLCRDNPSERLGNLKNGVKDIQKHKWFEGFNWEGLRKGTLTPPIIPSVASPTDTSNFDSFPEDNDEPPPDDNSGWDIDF
Method: To identify new PKG inhibitor scaffolds, the 1.7 million GlaxoSmithKline Full Diversity collection was tested at a single final concentration of 10 μM against recombinant full length wild type (WT) PfPKG using a Kinase Glo-based assay (Promega). […] Fresh samples of these primary hits were tested in duplicate against WT PfPKG and also against human PKGIα (HuPKGIα) (Supplementary Fig. 1) at a final concentration of 10 μM (confirmation step).
The expression vector encoding His6-cGK1α (HuPKGIα) was used to generate recombinant baculoviruses using the Bac-to-Bac system (Invitrogen) following the manufacturer’s protocol. These baculoviruses were used to infect Spodoptera frugiperda 21 cells (1.5 × 10^6/ml) at a multiplicity of infection of 5 and the infected cells were harvested 48 hours post-infection. His6-cGK1α was purified on Cobalt agarose and dialysed into 50 mM Tris-HCl pH 7.5, 0.1 mM EGTA, 150 mM NaCl, 270 mM sucrose, 0.03% Brij-35, 0.1% 2-mercaptoethanol, 1 mM benzamidine, 0.1 mM phenylmethylsulfonyl fluoride (PMSF).
Initial optimization of the PKG assay was performed manually in 384-well plates and analysed with GraFit 7. The buffer for all assays was 25 mM HEPES pH 7.3 (GIBCO), 10 mM MgCl2 (Sigma), 2 mM DTT (Sigma), 0.01 mM cGMP (Sigma), 0.1 mg/ml BSA (Ambion). Enzymatic activity was tested using a luminescence-based kit (Promega KinaseGlo). Addition of the first reagent depletes the unused ATP and addition of the second reagent converts ADP (product of the kinase reaction) to ATP, which is then measured through a luciferin/luciferase reaction. The amount of luminescence is directly proportional to ATP turnover by the kinase. The kit was chosen because it can be miniaturized to small volumes (i.e. 4 µl) in 1536-well plates, for use in HTS.
We used PKA peptide substrate (SCP0212, Sigma-Aldrich) for WT and TQ PfPKG, dissolved in milliQ water at a final concentration of 5 mM, and Long S6 peptide substrate (produced at the University of Dundee, sequence […]) for HuPKGIα, dissolved in water at a final concentration of 30 mM.
We calculated the Michaelis-Menten (Km) constant for ATP and peptide substrate (PKA or Long S6) for all enzymes using GraphPad Prism (Supplementary Figs 2 and 3 and Supplementary Table 3). In order to identify different types of PKG inhibitors, including ATP competitive or non-competitive inhibitors, as well as inhibitors that bind to the peptide substrate pocket, we performed all assays using ATP and peptide substrate at a concentration equal to the Km. We also determined enzyme activity by calculating ATP turnover (Kcat) over the Km (Supplementary Table 3). The Kcat was calculated as (Vmax*slope)/[E] where Vmax is the maximum velocity and [E] is the concentration of the enzyme.
The plates containing the compounds were prepared at GSK in Upper Providence or Stevenage. Compounds were tested at a single final concentration of 10 µM or in a dose response with a range of concentrations starting from 100 μM to 1.6 nM (1 in 3 serial dilutions). Compounds were dispensed in the plates at the required concentration in a 40 nl volume. All plates (1536-well white Greiner) contained 40 nl of DMSO in lanes 11 and 12 (control 1, 100% enzyme activity) and were empty in lanes 35 and 36 (control 2, 0% enzyme activity). The plates were removed from −20 °C 1 hour before starting the assay. Using a Multidrop Combi dispenser (Thermo Scientific), 2 µl of the buffer containing ATP and the substrate were added to all wells then 2 µl of buffer only were added to column 35 and 36. Finally 2 µl of buffer containing the enzyme were dispensed in all the plate wells except for lanes 35 and 36. After 1 hour incubation at 21 °C 2 µl of ADP-Glo reagent (Promega KinaseGlo kit), previously supplemented with 0.02% CHAPS (Sigma), were added to all wells.

[1] = Aqueous kinetic solubility assay (CAD); assay type: physicochemical; details: several values in a cell = replicates
Method: […] of 10 mM DMSO compound solution is diluted to 100 μl with pH7.4 phosphate buffered saline, equilibrated for 1 hour at room temperature and filtered through Millipore MultiscreenHTS-PCF filter plates (MSSL BPC). The filtrate is quantified by suitably calibrated Charged Aerosol Detector[56].

[2] = phosphate buffered saline, pH 7.4, aqueous buffer, kinetic from dmso stock

Sequence of AuroraB (Q96GD4 whole entry): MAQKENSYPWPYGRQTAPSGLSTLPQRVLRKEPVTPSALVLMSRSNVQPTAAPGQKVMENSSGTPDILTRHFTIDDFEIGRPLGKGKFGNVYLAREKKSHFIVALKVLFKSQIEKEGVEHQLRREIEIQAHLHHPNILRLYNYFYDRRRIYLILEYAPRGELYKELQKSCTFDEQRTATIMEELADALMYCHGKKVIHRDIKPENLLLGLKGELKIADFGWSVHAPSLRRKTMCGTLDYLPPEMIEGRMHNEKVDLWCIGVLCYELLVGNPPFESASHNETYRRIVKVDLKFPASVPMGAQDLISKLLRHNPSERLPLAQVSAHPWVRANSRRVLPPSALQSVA

Compound | IC50 (AuroraB) | IC50 (HuPKGIα) | solubility at 1 h [1, 2] | solubility at 1 h [1]
CCn1cc(-c2ccncn2)c(-c2cccc(NS(=O)(=O)c3cc(F)ccc3F)c2)n1 [Compound 2] | > 31.6 µM | > 100 µM | 412 µM (≈ 182 µg/mL) | –
Cc1ccc(S(C)(=O)=O)cc1Nc1nccc(-c2sc(CC(N)=O)nc2-c2ccccc2)n1 [Compound 3] | > 31.6 µM | > 100 µM | 138 µM (≈ 66.2 µg/mL) | 124 µM (≈ 59.5 µg/mL)
CC(C)(CN)c1cc(-c2ccc(Cl)c(O)c2)c(-c2ccncc2)o1 [Compound 4] | > 31.6 µM | 15 µM | 252 µM (≈ 86.4 µg/mL) | –
CCn1c(-c2nonc2N)nc2c(-c3ccccc3)ncc(CN(C)C3CCN(C)CC3)c21 [Compound 5] | 12.6 µM | 40.3 µM | – | –
CNS(=O)(=O)c1cccc(Nc2ccnc(Nc3cccc(S(=O)(=O)NC)c3)n2)c1 [Compound 6] | 0.0631 µM | 44.2 µM | 180 µM (≈ 80.7 µg/mL) | –
COc1ccc(-c2c(-c3cccc(C(=O)N4CCN(C)CC4)c3)oc3ncnc(N)c23)cc1 [Compound 7] | 3.2 µM | > 100 µM | 180 µM (≈ 79.8 µg/mL) | –
COc1ccc(CCNC(=O)CSc2ncnc3[nH]ncc23)cc1OC [Compound 8] | > 31.6 µM | > 100 µM | 254 µM (≈ 94.9 µg/mL) | –
COc1cccc(Nc2nc(-c3ccncc3)cc(N3CCN(C)CC3)n2)c1 [Compound 9] | > 31.6 µM | > 100 µM | 82 µM (≈ 30.9 µg/mL) | –
COc1cc(CS(C)(=O)=O)ccc1Nc1nc(Nc2cc(F)ccc2C(N)=O)c2cc[nH]c2n1 [Compound 10] | > 31.6 µM | > 100 µM | – | –
O=C(N[C@@H](CO)c1ccccc1)c1ccc2cncc(-c3cn[nH]c3)c2n1 [Compound 11] | 0.2 µM | 6.1 µM | 4 µM (≈ 1.44 µg/mL) | –
NCCNCc1ccc(-c2cc3ccncc3cc2OC2CCNCC2)s1 [Compound 12] | 10 µM | 13.8 µM | – | –
CNCCOc1cnc(-c2ccoc2C)c(-c2ccc3cnccc3c2)c1 [Compound 13] | > 31.6 µM | 7.4 µM | 418 µM (≈ 150 µg/mL) | –
O=C(c1cccc(OCc2cccnc2)c1)N1CCc2sccc2C1CN1CCCCC1 (stereo not drawn) [Compound 14] | > 31.6 µM | > 100 µM | 168 µM (≈ 75.2 µg/mL) | –
Nc1ccc2c(-c3ccncc3)c(-c3ccc(Cl)c(O)c3)[nH]c2n1 [Compound 15] | 4 µM | 45.2 µM | – | –
Nc1nc(Nc2cccc3cnccc23)nn1C(=O)C1CCCCC1 [Compound 16] | 4 µM | 22.4 µM | 69 µM (≈ 23.2 µg/mL) | –
